From patent publication US12180173B1, “5-((2-isopropyl-5-methylphenoxy)methyl)-3-(naphthalen-1-yl)-1,2,4-oxadiazole as an anti-cancer and antimicrobial compound” (KING FAISAL UNIVERSITY, priority 2023, dated 2024)

Experiments:
Format in all cases: cell-based
different microbes = experiment: Antimicrobial activity, agar plate disc-diffusion (overall statement); conditions: against different microbes (bacteria and fungi)
Description: (§1) The agar plate disc-diffusion method was applied. Sterilized filter papers (6 mm in diameter) were wetted with 10 μL of a solution of 5-((2-isopropyl-5-methylphenoxy)methyl)-3-(naphthalen-1-yl)-1,2,4-oxadiazole (3) to be tested, containing 10 mg/mL in DMSO, and the discs were allowed to air dry. The discs were then placed onto the surface of agar plates (nutrient agar for bacteria and Sabouraud's dextrose agar for fungi) seeded with the test organism. Each plate contained 15 mL of the agar medium, previously seeded with 0.2 mL of the broth culture of each organism pregrown for 18 hours. The plates were incubated at 37° C. for 48 h, and 72 h for fungi. The inhibition zones were measured in mm. Discs impregnated with DMSO were used as a control, and its inhibition zone was subtracted from the tested compound actual inhibition zone.

[1] = test system: human prostate cancer cells (PC3); experiment: Cytotoxicity by SRB assay; conditions: 0.01 μM to 100 μM for 72 h
Description: (§2) The anticancer activity of the described synthesized compounds against highly aggressive androgen-independent metastatic human prostate cancer cells (PC3) and osteosarcoma (MG-63) cells. The human prostate cancer cells (PC3) and human osteosarcoma cells (MG-63) were obtained from Nawah Scientific Inc. (Mokatam, Cairo, Egypt) and cultured in DMEM (Dulbecco's modified eagle's medium), Gibco, USA, supplemented with fetal bovine serum (FBS) at a concentration of 10% and 100 U/mL of penicillin and streptomycin (PS). The Cells were incubated at 37° C. in a humidified environment that contained 5% CO2.
(§3) Cells were seeded in 96-well plates as aliquots of 100 μL cell suspension and incubated in a complete media for 24 h. afterward, cells were treated with 5-((2-isopropyl-5-methylphenoxy)methyl)-3-(naphthalen-1-yl)-1,2,4-oxadiazole at diverse concentrations ranging from 0.01 μM to 100 μM for 72 h. Then, cells were fixed at 4° C. for one hour with 150 μL of 10% trichloroacetic acid (TCA). […] Then, 150 μL of Tris pH 10.5 (10 mM) was added, and the absorbance was measured at 540 nm using a BMG LABTECH®-FLUOstar Omega microplate reader (Ortenberg, Germany). Half maximal inhibitory concentrations (IC50) values were calculated for each experiment using GraphPad Prism 6 software. […]
(§4) The inhibition was calculated using the following equation: Inhibition %=100−Average Viability

[2] = test system: human osteosarcoma cells (MG-63); experiment: Cytotoxicity by SRB assay; conditions: MG-63 cells, 0.01 μM to 100 μM for 72 h
Description: as §2, §3, §4

[3] = test system: Chrysosporium keratinophilum; experiment: Agar plate disc-diffusion, inhibition zone
Description: as §1, with “Sterilized filter papers (6 mm in diameter) were wetted with 10 μL of a solution of 5-((2-isopropyl-5-methylphenoxy)methyl)-3-(naphthalen-1-yl)-1,2,4-oxadiazole (3) to be tested, containing 10 mg/mL in DMSO, and the discs were allowed to air dry.” left out

Bacillus cereus = experiment: Agar plate disc-diffusion, inhibition zone
Description: as §1, with “Sterilized filter papers (6 mm in diameter) were wetted with 10 μL of a solution of 5-((2-isopropyl-5-methylphenoxy)methyl)-3-(naphthalen-1-yl)-1,2,4-oxadiazole (3) to be tested, containing 10 mg/mL in DMSO, and the discs were allowed to air dry.” left out

Staphylococcus aureus = experiment: Agar plate disc-diffusion, inhibition zone
Description: as §1, with “Sterilized filter papers (6 mm in diameter) were wetted with 10 μL of a solution of 5-((2-isopropyl-5-methylphenoxy)methyl)-3-(naphthalen-1-yl)-1,2,4-oxadiazole (3) to be tested, containing 10 mg/mL in DMSO, and the discs were allowed to air dry.” left out

Aspergillus flavus = experiment: Agar plate disc-diffusion, inhibition zone
Description: as §1, with “Sterilized filter papers (6 mm in diameter) were wetted with 10 μL of a solution of 5-((2-isopropyl-5-methylphenoxy)methyl)-3-(naphthalen-1-yl)-1,2,4-oxadiazole (3) to be tested, containing 10 mg/mL in DMSO, and the discs were allowed to air dry.” left out

Escherichia coli = experiment: Agar plate disc-diffusion, inhibition zone
Description: as §1, with “Sterilized filter papers (6 mm in diameter) were wetted with 10 μL of a solution of 5-((2-isopropyl-5-methylphenoxy)methyl)-3-(naphthalen-1-yl)-1,2,4-oxadiazole (3) to be tested, containing 10 mg/mL in DMSO, and the discs were allowed to air dry.” left out

Pseudomonas aeruginosa = experiment: Agar plate disc-diffusion, inhibition zone
Description: as §1, with “Sterilized filter papers (6 mm in diameter) were wetted with 10 μL of a solution of 5-((2-isopropyl-5-methylphenoxy)methyl)-3-(naphthalen-1-yl)-1,2,4-oxadiazole (3) to be tested, containing 10 mg/mL in DMSO, and the discs were allowed to air dry.” left out

[4] = A = concentration of comp. = 10,000 μL
[5] = B = concentration of comp. = 30,000 μL
[6] = C = concentration of comp. = 50,000 μL

Cc1ccc(C(C)C)c(OCc2nc(-c3cccc4ccccc34)no2)c1 [Compound 3, 5-((2-isopropyl-5-methylphenoxy)methyl)-3-(naphthalen-1-yl)-1,2,4-oxadiazole]
antimicrobial activity (different microbes): excellent antimicrobial activities
antiproliferative activity [1]: excellent antiproliferative activities
antiproliferative activity [2]: excellent antiproliferative activities
inhibition zone [3, 4]: 27 mm
inhibition zone [3, 5]: 29 mm
inhibition zone [3, 6]: 46 mm
inhibition zone (Bacillus cereus; [4]): 28 mm
inhibition zone (Bacillus cereus; [5]): 30 mm
inhibition zone (Bacillus cereus; [6]): 39 mm
inhibition zone (Staphylococcus aureus; [4]): 14 mm
inhibition zone (Staphylococcus aureus; [5]): 21 mm
inhibition zone (Staphylococcus aureus; [6]): 24 mm
inhibition zone (Aspergillus flavus; [4]): 18 mm
inhibition zone (Aspergillus flavus; [5]): 22 mm
inhibition zone (Aspergillus flavus; [6]): 30 mm
inhibition zone (Escherichia coli; [4]): 29 mm
inhibition zone (Escherichia coli; [5]): 32 mm
inhibition zone (Escherichia coli; [6]): 51 mm
inhibition zone (Pseudomonas aeruginosa; [4]): 24 mm
inhibition zone (Pseudomonas aeruginosa; [5]): 28 mm
inhibition zone (Pseudomonas aeruginosa; [6]): 37 mm

O=C(O)c1cn(C2CC2)c2cc(N3CCNCC3)c(F)cc2c1=O [Cip., ciprofloxacin, reference compound]
inhibition zone [3, 4]: 29 mm
inhibition zone [3, 5]: 30 mm
inhibition zone [3, 6]: 53 mm
inhibition zone (Bacillus cereus; [4]): 29 mm
inhibition zone (Bacillus cereus; [5]): 30 mm
inhibition zone (Bacillus cereus; [6]): 42 mm
inhibition zone (Staphylococcus aureus; [4]): 43 mm
inhibition zone (Staphylococcus aureus; [5]): 44 mm
inhibition zone (Staphylococcus aureus; [6]): 53 mm
inhibition zone (Aspergillus flavus; [4]): 29 mm
inhibition zone (Aspergillus flavus; [5]): 30 mm
inhibition zone (Aspergillus flavus; [6]): 42 mm
inhibition zone (Escherichia coli; [4]): 30 mm
inhibition zone (Escherichia coli; [5]): 39 mm
inhibition zone (Escherichia coli; [6]): 60 mm
inhibition zone (Pseudomonas aeruginosa; [4]): 29 mm
inhibition zone (Pseudomonas aeruginosa; [5]): 30 mm
inhibition zone (Pseudomonas aeruginosa; [6]): 53 mm
